The target of test [1] is T1, N-formyl peptide receptor 2 (Homo sapiens) (UniProt P25090).
T1 sequence (whole entry): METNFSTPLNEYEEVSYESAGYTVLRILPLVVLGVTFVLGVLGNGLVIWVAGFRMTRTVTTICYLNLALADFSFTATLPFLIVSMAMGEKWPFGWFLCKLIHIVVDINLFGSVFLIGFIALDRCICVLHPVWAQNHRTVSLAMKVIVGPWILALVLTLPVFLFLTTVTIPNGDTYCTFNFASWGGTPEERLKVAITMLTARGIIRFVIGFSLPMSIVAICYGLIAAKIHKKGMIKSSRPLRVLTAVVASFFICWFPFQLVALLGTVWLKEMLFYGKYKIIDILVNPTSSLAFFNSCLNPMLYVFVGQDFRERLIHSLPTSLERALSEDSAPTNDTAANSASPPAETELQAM
Briefly: Agonist activity at human FPR2 expressed in RBL-2H3 cells assessed as induction of calcium mobilization. The format is functional, cell-based. On the technique in general: Calcium flux is commonly read through the fluorescence of an indicator in the cells.

The target of test [2] is T2, fMet-Leu-Phe receptor (Homo sapiens) (UniProt P21462).
T2 sequence (whole entry): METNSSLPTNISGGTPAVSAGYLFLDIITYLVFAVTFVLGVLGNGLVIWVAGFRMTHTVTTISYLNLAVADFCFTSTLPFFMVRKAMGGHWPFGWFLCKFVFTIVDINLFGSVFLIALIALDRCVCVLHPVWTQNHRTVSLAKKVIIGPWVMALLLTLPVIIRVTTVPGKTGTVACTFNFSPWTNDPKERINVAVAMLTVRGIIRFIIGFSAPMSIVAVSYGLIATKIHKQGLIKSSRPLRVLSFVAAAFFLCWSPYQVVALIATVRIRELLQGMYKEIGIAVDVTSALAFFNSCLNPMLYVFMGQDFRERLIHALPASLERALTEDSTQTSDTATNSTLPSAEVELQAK
Briefly: Agonist activity at human FPR1 expressed in RBL-2H3 cells assessed as induction of calcium mobilization. It is filed as functional, cell-based.

Calls of active or inactive are those of the source.

For `O=C(CN1CCN(c2ccc(Cl)cc2)CC1)Nc1ccc(Br)cc1`, in test [1], the result was Active.
With `O=C(Cc1ccccc1)N/N=C/C=C/c1ccccc1[N+](=O)[O-]`, the result in test [1] and in test [2] was inactive.
Turning to `COc1cc(/C=N/NC(=O)c2ccc3c(c2)OCO3)ccc1OCc1ccccc1`, in test [2], the result was Active.
On the same count and under the same terms, with `COc1cccc(Cc2cc(C)nn(CC(=O)Nc3ccc4c(c3)OCO4)c2=O)c1` the entry was “Active”.
In the case of `CCc1nc2ccccc2n1[C@@H]1CCN(C(=O)c2nc3cc(OC)ccc3[nH]2)C1`, the outcome in test [1] was Active.
Turning to `Cc1cccc(NC(=O)NCCc2ccc(Cl)cc2)c1`, the result in test [1] and in test [2] was inactive.
Take `O=C1NCC(c2ccccc2)C1C(=O)N/N=C/C=C/c1ccc(Br)cc1` (configuration not stated): the outcome in test [1] and in test [2] was inactive.
Turning to `CSCC[C@H](NC(=O)[C@H](Cc1ccc(O)cc1)NC(=O)[C@H](CCCCN)NC(=O)[C@@H](N)Cc1c[nH]c2ccccc12)C(=O)N[C@H](C(=O)N[C@H](CCSC)C(N)=O)C(C)C`, the outcome in test [1] and in test [2] was Active.
Take `COc1ccc(NC(=O)CCCCc2cccs2)cc1`: in test [1], the outcome was Active.
On the same count and under the same terms, next, `CCC(Nc1ccc(OC)cc1)C(=O)N/N=C(C)/C=C/c1ccccc1` (configuration not stated): “Active”.
On the same count and under the same terms, next, `O=C(CN1CCN(c2ccc(F)cc2)CC1)Nc1ccc(Br)cc1`: “Active”.
For the compound `COc1ccccc1/C=C/C=N/NC(=O)Cc1cccs1`, the result in test [1] and in test [2] was inactive.
Consider `Cc1ccc2[nH]c(SCC(=O)Nc3cccc(C(F)(F)F)c3)nc2c1`, for which the result in test [1] and in test [2] was inactive.
On to `Cc1cccc2[nH]c(SCC(=O)Nc3ccc(Cl)c([N+](=O)[O-])c3)nc12`, for which the outcome in test [1] and in test [2] was inactive.
In the case of `Cc1c(Cl)cccc1N1CCN(CC(=O)Nc2ccc(Br)cc2)CC1`, the result in test [1] was Active.
As for `O=C(N/N=C/c1ccc(-c2cccc(Br)c2)o1)c1cccnc1`, the outcome in test [1] was Active.
As to `O=C(CNc1ccccc1)N/N=C/C=C/c1ccccc1[N+](=O)[O-]`, the result in test [1] was Active.
On the same count and under the same terms, next, `CSc1ccc(NC(=O)Nc2c(C)n(C)n(-c3ccccc3)c2=O)cc1`: “Active”.
As to `Cc1ccc(CCNC(=O)Nc2ccc(F)cc2)cc1`, the result in test [1] and in test [2] was inactive.
On to `COc1ccc2[nH]c(SCC(=O)Nc3ccccc3OC)nc2c1`, for which the outcome in test [1] and in test [2] was Active.
Turning to `CCOc1ccc(C(=O)NN2C(=O)c3ccccc3NC2c2ccc(OC)cc2)cc1` (configuration not stated), in test [1], the result was Active.
Still for that read-out and setting: next, `O=C(N/N=C/c1ccc(-c2cccc(C(F)(F)F)c2)o1)c1ccc(F)cc1`: “Active”; `COc1ccc(CCNC(=O)Nc2ccc(Cl)cc2)cc1`: “Active”; `Cc1ccc(N2CCN(CC(=O)Nc3ccc(Br)cc3)CC2)cc1Cl`: “Active”.
As to `CCc1c(NC(=O)Nc2ccc(Cl)cc2)c(=O)n(-c2ccccc2)n1C`, the result in test [1] was Active.
Turning to `COc1ccc(NC(=O)Nc2ccc(C(=O)N3CCCCC3)cc2)cc1`, the result in test [1] and in test [2] was Active.
On to `O=C(CN1CCN(c2ccccc2)CC1)Nc1cccc(Br)c1`, for which the outcome in test [1] and in test [2] was inactive.
`O=C(CSc1nc2ccccc2[nH]1)Nc1ccc([N+](=O)[O-])cc1`: the result in test [1] and in test [2] was inactive.
As for `CCCC(C)c1ccc(OCC(=O)N/N=C/c2ccsc2)cc1` (configuration not stated), the result in test [1] and in test [2] was Active.
As to `COc1ccc(NC(=S)NN2C(=O)CSC2c2c[nH]c3ccccc23)cc1` (configuration not stated), the result in test [1] and in test [2] was Active.
For `O=C(NCCc1ccccc1)Nc1ccccc1`, the outcome in test [1] and in test [2] was inactive.
Consider `O=C(CSc1nc2ccccc2s1)N/N=C/C=C/c1ccccc1[N+](=O)[O-]`, for which the result in test [1] and in test [2] was inactive.
As to `COc1ccc(CCNC(=O)Nc2ccc(F)cc2)cc1`, the result in test [1] was Active.
As for `Cc1ccc(Cl)cc1N1CCN(CC(=O)Nc2ccc(Br)cc2)CC1`, the outcome in test [1] was Active.
As for `CCOc1ccc2[nH]c(SCC(=O)Nc3ccc(OC)cc3)nc2c1`, in test [2], the outcome was Active.
As to `O=C(CN1CCN(c2ccccc2)CC1)Nc1ccc(F)c(Cl)c1`, the outcome in test [1] and in test [2] was inactive.
Take `CCOc1ccc(NC(=O)CSc2nc3cc(OC)ccc3[nH]2)cc1`: in test [2], the outcome was Active.
For `O=C(CN1CCN(c2ccccn2)CC1)Nc1ccc(Cl)cc1`, the outcome in test [1] and in test [2] was inactive.
`O=C(CSc1nc2ccccc2[nH]1)Nc1cccc(Br)c1`: the result in test [1] and in test [2] was inactive.
With `O=C(CSc1nc2ccccc2[nH]1)Nc1ccccc1`, the outcome in test [1] and in test [2] was inactive.
`Cc1c(NC(=O)Nc2ccc(Br)cc2)c(=O)n(-c2ccccc2)n1C`: the outcome in test [1] was Active.
Consider `O=C(NNC(=O)c1ccccc1[N+](=O)[O-])c1ccc(Cl)cc1`, for which the outcome in test [1] was Active.
Consider `COc1ccc2[nH]c(SCC(=O)Nc3ccccc3)nc2c1`, for which the result in test [2] was Active.
As to `COc1cccc(NC(=O)CSc2nc3cc(OC)ccc3[nH]2)c1`, the outcome in test [2] was Active.
With `COc1ccc2[nH]c(SCC(=O)Nc3ccc(OC)c(OC)c3)nc2c1`, the result in test [1] and in test [2] was Active.
Take `O=C(CN1CCN(c2ccccc2)CC1)Nc1ccccc1Br`: the outcome in test [1] and in test [2] was inactive.
As to `COc1ccc2[nH]c(SCC(=O)Nc3ccc(Br)cc3)nc2c1`, in test [2], the result was Active.
With `O=C(CN1CCN(c2ccccc2)CC1)Nc1ccccc1`, the result in test [1] and in test [2] was inactive.
As to `O=C(Cc1ccc(Br)cc1)N/N=C/C=C/c1ccccc1[N+](=O)[O-]`, the outcome in test [1] was Active.
With `CC(C)c1c(NC(=O)Nc2ccc(Cl)cc2)c(=O)n(-c2ccccc2)n1C`, the result in test [1] and in test [2] was Active.
Take `COc1ccc2[nH]c(SCC(=O)Nc3ccc(Cl)cc3)nc2c1`: the outcome in test [1] and in test [2] was Active.
In the case of `O=C(CN1CCN(c2cccc(Cl)c2)CC1)Nc1ccc(Br)cc1`, the outcome in test [1] was Active.
For `COc1ccc(C2Nc3ccccc3C(=O)N2NC(=O)c2ccc([N+](=O)[O-])cc2)cc1` (configuration not stated), the outcome in test [1] was Active.
Regarding `COc1ccc(CCNC(=O)Nc2ccccc2)cc1`, in test [1], the outcome was Active.
`COc1ccc(CC(=O)N/N=C/C=C/c2ccccc2[N+](=O)[O-])cc1OC`: in test [1], the outcome was Active.
Take `COc1ccc(CCNC(=O)Nc2ccc(Cl)cc2Cl)cc1`: the outcome in test [1] and in test [2] was inactive.
As for `O=C(NCCc1ccc(Cl)cc1)Nc1ccccc1[N+](=O)[O-]`, the result in test [1] and in test [2] was inactive.
With `COc1ccc(CCNC(=O)Nc2ccc(Br)cc2)cc1`, the result in test [1] was Active.
With `O=C1NCC(c2ccccc2)C1C(=O)N/N=C/C=C/c1ccccc1[N+](=O)[O-]` (configuration not stated), the result in test [1] was Active.
Regarding `COc1ccc2[nH]c(SCC(=O)Nc3ccc([N+](=O)[O-])cc3)nc2c1`, the result in test [2] was Active.
Take `COc1cccc(N2CCN(CC(=O)Nc3ccc(Br)cc3)CC2)c1`: the result in test [1] was Active.
For `O=C(CN1CCN(c2ccccc2Cl)CC1)Nc1ccccc1`, the outcome in test [1] and in test [2] was inactive.
With `CC1(C)CC(=O)C(C(c2cccc(OCc3ccccc3)c2)C2C(=O)CC(C)(C)CC2=O)C(=O)C1`, in test [2], the result was Active.
Take `O=C(CN1CCN(c2ccccc2)CC1)Nc1ccc(Br)cc1`: the result in test [1] was Active.

The record behind these values is ChEMBL document CHEMBL1287661, “Computational structure-activity relationship analysis of small-molecule agonists for human formyl peptide receptors” (Eur J Med Chem, 2010).
